Test results published in patent publication US20170326125A1, “MULTISUBSTITUTED AROMATIC COMPOUNDS AS INHIBITORS OF THROMBIN” (VERSEON CORPORATION, priority 2016, published 2017).

Each compound was assayed against T1, Human thrombin (Homo sapiens, UniProt P00734) (assay: Inhibition of the protease activity of thrombin (chromogenic substrate S-2238)). Settings: inhibition of the protease activity of thrombin.
T1 construct: purchased Haematologic Technologies Inc
Type: biochemical
For `O=C(Nc1ccccc1Cl)n1nc(-c2cccnc2)nc1NCc1ccc(F)cc1` [Cmpd 200, N-(2-chlorophenyl)-5-[(4-fluorophenyl)methyl]amino-3-(pyridin-3-yl)-1H-1,2,4-triazole-1-carboxamide], the IC50 was over 1000 nM.
For `COc1ccccc1C(=O)n1nc(-c2ccccn2)cc1NCc1ccco1` [Cmpd 201, N-(furan-2-ylmethyl)-1-[(2-methoxyphenyl)carbonyl]-3-(pyridin-2-yl)-1H-pyrazol-5-amine], the IC50 was 100 to 1000 nM.
With `COc1ccccc1C(=O)n1nc(-c2ccccn2)cc1NCc1ccoc1` [Cmpd 202, N-(furan-3-ylmethyl)-1-[(2-methoxyphenyl)carbonyl]-3-(pyridin-2-yl)-1H-pyrazol-5-amine] the IC50 was 100 to 1000 nM.
Compound `Fc1ccc(CNc2nc(-c3ccccn3)nn2CCc2ccccc2)cc1` [Cmpd 203, N-[(4-fluorophenyl)methyl]-1-(2-phenylethyl)-3-(pyridin-2-yl)-1H-1,2,4-triazol-5-amine] has an IC50 of over 1000 nM.
For `Fc1ccc(CNc2nc(-c3ccccn3)n(CCc3ccccc3)n2)cc1` [Cmpd 204, N-[(4-fluorophenyl)methyl]-1-(2-phenylethyl)-5-(pyridin-2-yl)-1H-1,2,4-triazol-3-amine], the IC50 was over 1000 nM.
`COc1cc(C)ccc1C(=O)n1nc(-c2ccccc2)nc1NCc1ccc(F)cc1` [Cmpd 205, N-[(4-fluorophenyl)methyl]-1-[(2-methoxy-4-methylphenyl)carbonyl]-3-phenyl-1H-1,2,4-triazol-5-amine] was tested, and the IC50 was 100 to 1000 nM.
`COc1ccccc1C(=O)n1nc(-c2ccncc2)nc1NCc1ccc(F)cc1` [Cmpd 207, N-[(4-fluorophenyl)methyl]-1-[(2-methoxyphenyl)carbonyl]-3-(pyridin-4-yl)-1H-1,2,4-triazol-5-amine] showed an IC50 of under 100 nM.
For `COc1ccccc1C(=O)n1nc(-c2ccccc2)cc1NCc1ccc(F)cc1` [Cmpd 208, N-[(4-fluorophenyl)methyl]-1-[(2-methoxyphenyl)carbonyl]-3-phenyl-1H-pyrazol-5-amine], the IC50 was over 1000 nM.
`Cc1ccccc1C(=O)n1nc(-c2ccccc2)nc1NCc1ccc(F)cc1` [Cmpd 209, N-[(4-fluorophenyl)methyl]-1-[(2-methylphenyl)carbonyl]-3-phenyl-1H-1,2,4-triazol-5-amine] was tested, and the IC50 was 100 to 1000 nM.
`O=C(c1ccco1)n1nc(-c2ccccn2)nc1NCc1ccc(F)cc1` [Cmpd 210, N-[(4-fluorophenyl)methyl]-1-[(furan-2-yl)carbonyl]-3-(pyridin-2-yl)-1H-1,2,4-triazol-5-amine] was tested, and the IC50 was under 100 nM.
Compound `O=C(c1ccco1)n1nc(-c2ccncc2)nc1NCc1ccc(F)cc1` [Cmpd 211, N-[(4-fluorophenyl)methyl]-1-[(furan-2-yl)carbonyl]-3-(pyridin-4-yl)-1H-1,2,4-triazol-5-amine] has an IC50 of under 100 nM.
In the case of `O=C(c1ccoc1)n1nc(-c2ccccn2)nc1NCc1ccc(F)cc1` [Cmpd 212, N-[(4-fluorophenyl)methyl]-1-[(furan-3-yl)carbonyl]-3-(pyridin-2-yl)-1H-1,2,4-triazol-5-amine], the IC50 is reported as under 100 nM.
`O=C(c1ccoc1)n1nc(-c2cccnc2)nc1NCc1ccc(F)cc1` [Cmpd 213, N-[(4-fluorophenyl)methyl]-1-[(furan-3-yl)carbonyl]-3-(pyridin-3-yl)-1H-1,2,4-triazol-5-amine] showed an IC50 of under 100 nM.
`O=C(c1ccoc1)n1nc(-c2ccncc2)nc1NCc1ccc(F)cc1` [Cmpd 214, N-[(4-fluorophenyl)methyl]-1-[(furan-3-yl)carbonyl]-3-(pyridin-4-yl)-1H-1,2,4-triazol-5-amine] showed an IC50 of under 100 nM.
For `O=C(N1CCCCC1)n1nc(-c2cccnc2)nc1NCc1ccc(F)cc1` [Cmpd 215, N-[(4-fluorophenyl)methyl]-1-[(piperidin-1-yl)carbonyl]-3-(pyridin-3-yl)-1H-1,2,4-triazol-5-amine], the IC50 was over 1000 nM.
In the case of `CCCn1nc(-c2ccccn2)nc1NCc1ccc(F)cc1` [Cmpd 216, N-[(4-fluorophenyl)methyl]-1-propyl-3-(pyridin-2-yl)-1H-1,2,4-triazol-5-amine], the IC50 is reported as over 1000 nM.
Work on `CCCn1nc(NCc2ccc(F)cc2)nc1-c1ccccn1` [Cmpd 217, N-[(4-fluorophenyl)methyl]-1-propyl-5-(pyridin-2-yl)-1H-1,2,4-triazol-3-amine] yielded an IC50 of over 1000 nM.
`Cc1c(-c2ccccc2)n[nH]c1N(Cc1ccc(F)cc1)C(=O)C(C)(C)C` [Cmpd 218, N-[(4-fluorophenyl)methyl]-2,2-dimethyl-N-(4-methyl-3-phenyl-1H-pyrazol-5-yl)propanamide] showed an IC50 of over 1000 nM.
Compound `O=C(c1ccsc1)n1nc(-c2ccccn2)nc1NCc1ccc(F)cc1` [Cmpd 219, N-[(4-fluorophenyl)methyl]-3-(pyridin-2-yl)-1-[(thiophen-3-yl)carbonyl]-1H-1,2,4-triazol-5-amine] has an IC50 of under 100 nM.
Compound `O=C(c1ccsc1)n1nc(-c2cccnc2)nc1NCc1ccc(F)cc1` [Cmpd 220, N-[(4-fluorophenyl)methyl]-3-(pyridin-3-yl)-1-[(thiophen-3-yl)carbonyl]-1H-1,2,4-triazol-5-amine] has an IC50 of under 100 nM.
Work on `O=C(c1cccs1)n1nc(-c2ccncc2)nc1NCc1ccc(F)cc1` [Cmpd 221, N-[(4-fluorophenyl)methyl]-3-(pyridin-4-yl)-1-[(thiophen-2-yl)carbonyl]-1H-1,2,4-triazol-5-amine] yielded an IC50 of 100 to 1000 nM.

Same assay, conditions: inhibition of the protease activity of thrombin; class symbols a/b/c
`O=C(Oc1ccccc1F)n1nc(-c2cccnc2)nc1NCc1ccc(F)cc1` [Cmpd 173, 2-fluorophenyl 5-[(4-fluorophenyl)methyl]amino-3-(pyridin-3-yl)-1H-1,2,4-triazole-1-carboxylate] was tested, and the IC50 was over 1000 nM.
In the case of `CC(=O)Oc1ccccc1C(=O)n1nc(-c2ccccn2)nc1NCc1ccccc1` [Cmpd 177, 2-[5-(benzylamino)-3-(pyridin-2-yl)-1H-1,2,4-triazol-1-yl]carbonylphenyl acetate], the IC50 is reported as under 100 nM.
In the case of `c1cncc(-c2n[nH]c(NCc3cccs3)n2)c1` [Cmpd 178, 3-(pyridin-3-yl)-N-(thiophen-2-ylmethyl)-1H-1,2,4-triazol-5-amine], the IC50 is reported as over 1000 nM.
With `CCC(=O)n1nc(-c2cccnc2)nc1NCc1cccc(C#N)c1` [Cmpd 179, 3-([1-propanoyl-3-(pyridin-3-yl)-1H-1,2,4-triazol-5-yl]aminomethyl)benzonitrile] the IC50 was over 1000 nM.
`CSc1nc(-c2cccnc2)nn1C(=O)c1ccccc1Cl` [Cmpd 180, 3-1-[(2-chlorophenyl)carbonyl]-5-(methylsulfanyl)-1H-1,2,4-triazol-3-ylpyridine] showed an IC50 of under 100 nM.
For `O=C(c1ccccc1Cl)n1nc(-c2cccnc2)nc1SCc1ccc(F)cc1` [Cmpd 181, 3-1-[(2-chlorophenyl)carbonyl]-5-[(4-fluorophenyl)methyl]sulfanyl-1H-1,2,4-triazol-3-ylpyridine], the IC50 was 100 to 1000 nM.
`COc1ccccc1C(=O)n1nc(-c2cccnc2)nc1SC` [Cmpd 182, 3-1-[(2-methoxyphenyl)carbonyl]-5-(methylsulfanyl)-1H-1,2,4-triazol-3-ylpyridine] was tested, and the IC50 was under 100 nM.
Work on `O=C(Nc1ccccc1)c1cn(-c2ccccn2)nc1NCc1ccc(F)cc1` [Cmpd 183, 3-[(4-fluorophenyl)methyl]amino-N-phenyl-1-(pyridin-2-yl)-1H-pyrazole-4-carboxamide] yielded an IC50 of over 1000 nM.
In the case of `O=C(Nc1nc(C(=O)N2CCOCC2)n[nH]1)c1ccc(Cl)cc1` [Cmpd 184, 4-chloro-N-3-[(morpholin-4-yl)carbonyl]-1H-1,2,4-triazol-5-ylbenzamide], the IC50 is reported as over 1000 nM.
`Cc1ccc(C(=O)Nc2nc(C(=O)N3CCOCC3)n[nH]2)cc1` [Cmpd 185, 4-methyl-N-3-[(morpholin-4-yl)carbonyl]-1H-1,2,4-triazol-5-ylbenzamide] gave an IC50 of over 1000 nM.
Work on `CN(C)C(=O)c1n[nH]c(C(=O)Nc2ccccc2Cl)n1` [Cmpd 186, 5-C-(2-chlorobenzene)-3-N,3-N-dimethyl-1H-1,2,4-triazole-3,5-dicarboxamide] yielded an IC50 of over 1000 nM.
In the case of `CNC(=O)c1n[nH]c(C(=O)Nc2ccccc2Cl)n1` [Cmpd 187, 5-C-(2-chlorobenzene)-3-N-methyl-1H-1,2,4-triazole-3,5-dicarboxamide], the IC50 is reported as over 1000 nM.
With `CN(C)C(=O)n1nc(-c2cccnc2)nc1NCc1ccc(F)cc1` [Cmpd 188, 5-[(4-fluorophenyl)methyl]amino-N,N-dimethyl-3-(pyridin-3-yl)-1H-1,2,4-triazole-1-carboxamide] the IC50 was over 1000 nM.
`CC(C)NC(=O)n1nc(-c2cccnc2)nc1NCc1ccc(F)cc1` [Cmpd 190, 5-[(4-fluorophenyl)methyl]amino-N-(propan-2-yl)-3-(pyridin-3-yl)-1H-1,2,4-triazole-1-carboxamide] showed an IC50 of over 1000 nM.
`O=C(Nc1ccccc1)n1nc(-c2cccnc2)nc1NCc1ccc(F)cc1` [Cmpd 191, 5-[(4-fluorophenyl)methyl]amino-N-phenyl-3-(pyridin-3-yl)-1H-1,2,4-triazole-1-carboxamide] showed an IC50 of over 1000 nM.
Work on `CCOC(=O)n1nc(-c2cccnc2)nc1NCc1ccc(F)cc1` [Cmpd 192, ethyl 5-[(4-fluorophenyl)methyl]amino-3-(pyridin-3-yl)-1H-1,2,4-triazole-1-carboxylate] yielded an IC50 of 100 to 1000 nM.
`COC(=O)c1n[nH]c(NC(=O)c2ccccc2F)n1` [Cmpd 193, methyl 5-[(2-fluorobenzene)amido]-1H-1,2,4-triazole-3-carboxylate] gave an IC50 of over 1000 nM.
`COC(=O)c1n[nH]c(NC(=O)c2ccccc2OC)n1` [Cmpd 194, methyl 5-[(2-methoxybenzene)amido]-1H-1,2,4-triazole-3-carboxylate] showed an IC50 of over 1000 nM.
`COC(=O)c1n[nH]c(NC(=O)c2cccc(Cl)c2)n1` [Cmpd 195, methyl 5-[(3-chlorobenzene)amido]-1H-1,2,4-triazole-3-carboxylate] gave an IC50 of over 1000 nM.
In the case of `COC(=O)c1n[nH]c(NC(=O)c2ccc(C)cc2)n1` [Cmpd 196, methyl 5-[(4-methylbenzene)amido]-1H-1,2,4-triazole-3-carboxylate], the IC50 is reported as over 1000 nM.
For `COc1ccccc1C(=O)n1nc(-c2ccccn2)nc1NCc1cc2ccccc2s1` [Cmpd 198, N-(1-benzothiophen-2-ylmethyl)-1-[(2-methoxyphenyl)carbonyl]-3-(pyridin-2-yl)-1H-1,2,4-triazol-5-amine], the IC50 was over 1000 nM.
For `COc1ccccc1C(=O)n1nc(-c2ccccn2)nc1NCc1csc2ccccc12` [Cmpd 199, N-(1-benzothiophen-3-ylmethyl)-1-[(2-methoxyphenyl)carbonyl]-3-(pyridin-2-yl)-1H-1,2,4-triazol-5-amine], the IC50 was over 1000 nM.
